Data as given in PMC7309260, “Peptide Probes for Plasmodium falciparum MyoA Tail Interacting Protein (MTIP): Exploring the Druggability of the Malaria Parasite Motor Complex” (ACS Chemical Biology, 2020).
Like-named read-outs stand apart in the source and are kept apart here. Where a SMILES comes first, the peptide text is derived from it. Where no end group is shown, it is not given here. [ ]: non-standard residue; d: D form. The star is where a group is joined. 5FAM = O=C1OC2(c3ccc(O)cc3Oc3cc(O)ccc32)c2ccc(C(=O)*)cc21; Abu(3-Me-diazirin-3-yl) = CC1(CC[C@H](N)C(=O)O)N=N1

Tests used:
P. falciparum [1] = experiment: microbe, parasite or virus in culture; conditions: Plasmodium falciparum, read-out: EC50, P. falciparum reinvasion control curve
PfMTIPΔ60 [2] = biological target: T1, PfMTIPΔ60 (Plasmodium falciparum, UniProt Q8I4W8); experiment: biochemical; assay type: binding
T1 construct: PfMTIPΔ60 stocks were recombinantly expressed in E. coli BL21; made in house; host or cells: E. coli BL21

PfMTIPΔ60 [3] = biological target: T1, PfMTIPΔ60; experiment: biochemical; assay type: binding; conditions: for n (ITC stoichiometry) / ΔH (ITC) / ΔS (ITC): 303 K, n = 2
P. falciparum [4] = conditions: read-out: EC50, P. falciparum reinvasion / cell viability; serial dilution of peptides in triplicate, egress in presence of peptide, flow cytometry at trophozoite stage, n = 3
[5] = system: P. falciparum (3D7 strain); conditions: for uptake of polyarginines compared by chain length: flow cytometry (Figure 2c)
[6] = system: P. falciparum late schizonts; conditions: 10 μM peptide, 3 h
[7] = 1% TX-100, densitometry, 2 µL loading
[8] = 1% TX-100, densitometry, 5 µL loading
[9] = 1% TX-100, densitometry, average of 2 µL and 5 µL loadings
[10] = densitometry, average of 2 µL and 5 µL loadings

Question: C[C@H]1[C@@H](O)O[C@@H]2O[C@@]3(C)CC[C@H]4[C@H](C)CC[C@@H]1[C@@]24OO3 [dihydroartemisin, Dihydroartemisinin] was tested. Which EC50 (P. falciparum [1]) did it give?
Answer: 10 nM

Question: CC[C@H](C)[C@H](NC(=O)[C@H](Cc1c[nH]cn1)NC(=O)[C@H](CCCNC(=N)N)NC(=O)[C@H](CCC(N)=O)NC(=O)[C@@H](NC(=O)[C@H](C)NC(=O)[C@H](CC(C)C)NC(=O)[C@H](CCCNC(=N)N)NC(=O)[C@H](CO)NC(=O)[C@@H]1CCCN1C(=O)[C@@H](NC(=O)[C@H](CC(N)=O)NC(=O)[C@H](CC(C)C)NC(=O)CNC(=O)c1ccc2c(c1)C(=O)OC21c2ccc(O)cc2Oc2cc(O)ccc21)[C@@H](C)CC)C(C)C)C(=O)N[C@@H](CCCNC(=N)N)C(=O)N[C@@H](CCCNC(=N)N)C(=O)N[C@@H](CCCNC(=N)N)C(=O)N[C@@H](CCSC)C(=O)N[C@H](C(N)=O)C(C)C [F-ArgMy2] (5FAM-GLNIPSRLAVQRHIRRRMV-NH2) was tested. Which Kd (PfMTIPΔ60 [2]) did it give?
Answer: 4220 nM

Question: How did the Kd (PfMTIPΔ60 [3]) turn out when CC[C@H](C)[C@H](NC(=O)[C@H](Cc1c[nH]cn1)NC(=O)[C@H](C)NC(=O)[C@H](CCC(N)=O)NC(=O)[C@@H](NC(=O)[C@H](CCCNC(=N)N)NC(=O)[C@H](CC(C)C)NC(=O)[C@H](CC(C)C)NC(=O)[C@H](CO)NC(=O)[C@@H]1CCCN1C(=O)[C@@H](NC(=O)[C@H](CC(N)=O)NC(=O)[C@H](CCCCN)NC(=O)CNC(=O)c1ccc2c(c1)C(=O)OC21c2ccc(O)cc2Oc2cc(O)ccc21)[C@@H](C)CC)C(C)C)C(=O)N[C@@H](CCCNC(=N)N)C(=O)N[C@@H](CCCCN)C(=O)N[C@@H](CCCCN)C(=O)N[C@@H](CCSC)C(=O)N[C@H](C(N)=O)C(C)C [F-My1] (5FAM-GKNIPSLLRVQAHIRKKMV-NH2) was run?
Answer: 57.1 ± 13 nM

Question: And the “n (ITC stoichiometry)” value (PfMTIPΔ60 [3])?
Answer: 0.91 ± 0.01

Question: And the “ΔH (ITC)” value (PfMTIPΔ60 [3])?
Answer: -17.6 ± 0.22 kcal/mol

Question: And the “ΔS (ITC)” value (PfMTIPΔ60 [3])?
Answer: -104 J/K.mol

Question: What about the EC50 (P. falciparum [4]) of the same compound?
Answer: ~160000 nM

Question: CC[C@H](C)[C@H](NC(=O)[C@H](Cc1c[nH]cn1)NC(=O)[C@H](C)NC(=O)[C@H](CCC(N)=O)NC(=O)[C@@H](NC(=O)[C@H](CCCNC(=N)N)NC(=O)[C@H](CC(C)C)NC(=O)[C@H](CC(C)C)NC(=O)[C@H](CO)NC(=O)[C@@H]1CCCN1C(=O)[C@@H](NC(=O)[C@H](CC(N)=O)NC(=O)[C@H](CCCNC(=N)N)NC(=O)CNC(=O)c1ccc2c(c1)C(=O)OC21c2ccc(O)cc2Oc2cc(O)ccc21)[C@@H](C)CC)C(C)C)C(=O)N[C@@H](CCCNC(=N)N)C(=O)N[C@@H](CCCNC(=N)N)C(=O)N[C@@H](CCCNC(=N)N)C(=O)N[C@@H](CCSC)C(=O)N[C@H](C(N)=O)C(C)C [F-ArgMy1] (5FAM-GRNIPSLLRVQAHIRRRMV-NH2) was tested. Which Kd (PfMTIPΔ60 [2]) did it give?
Answer: 3.9 nM

Question: And the “fold improvement in uptake compared to F-My1” value ([5]; Pf3D7 early schizonts, flow cytometry (Figure 2d))?
Answer: 2 fold

Question: What about the “permeability, share of all parasitized cells” value ([5]; midstage schizonts, flow cytometry) of the same compound?
Answer: up to 50%

Question: And the “In vivo Conc, TX I (insoluble)” value [6, 7]?
Answer: 0.06 µM

Question: What about the “In vivo Conc, TX S (soluble)” value [6, 7] of the same compound?
Answer: 2.94 µM

Question: And the “In vivo Conc, TX I (insoluble)” value [6, 8]?
Answer: 0.39 µM

Question: What about the “In vivo Conc, TX S (soluble)” value [6, 8] of the same compound?
Answer: 7.17 µM

Question: What about the “In vivo Conc, TX I (insoluble), Av.” value [6, 9] of the same compound?
Answer: 0.22 µM

Question: What about the “In vivo Conc, TX S (soluble), Av.” value [6, 9] of the same compound?
Answer: 5.06 µM

Question: And the “In vivo Conc, SLO S (soluble)” value ([6]; densitometry, 2 µL loading)?
Answer: 2.03 µM

Question: And the “In vivo Conc, SLO I (insoluble)” value ([6]; densitometry, 5 µL loading)?
Answer: 0.93 µM

Question: And the “In vivo Conc, SLO S (soluble)” value ([6]; densitometry, 5 µL loading)?
Answer: 3.01 µM

Question: What about the “In vivo Conc, SLO I (insoluble), Av.” value [6, 10] of the same compound?
Answer: 0.51 µM

Question: And the “In vivo Conc, SLO S (soluble), Av.” value [6, 10]?
Answer: 2.52 µM

Question: What about the “In vivo Conc, SLO I (insoluble)” value ([6]; late schizonts, densitometry of in-gel fluorescence, 2 µL loading) of the same compound?
Answer: 0.10 µM

Question: And the EC50 (P. falciparum [4])?
Answer: ~160000 nM

Question: Which results are given for FAM GRRRRRRRR -NH2 [F-Arg8]?
Answer: uptake compared with F-My1 ([5]; Pf3D7 early schizonts ca. 35 h PI, flow cytometry, unpaired t test (Figure 2b)): significantly greater permeability over F-My1; uptake of polyarginines compared by chain length ([5]; Pf3D7 early schizonts): significantly greater than F-Arg6

Question: How did the “n (ITC stoichiometry)” value (PfMTIPΔ60 [3]) turn out when “KNIPSLLRVQAHIRKKMV-NH2 (C-terminus assumed) [My1]” was run?
Answer: 1.06 ± 0.01

Question: What about the “ΔH (ITC)” value (PfMTIPΔ60 [3]) of the same compound?
Answer: -15.9 ± 0.12 kcal/mol

Question: What about the “ΔS (ITC)” value (PfMTIPΔ60 [3]) of the same compound?
Answer: -85.9 J/K.mol

Question: Which Kd (PfMTIPΔ60 [2]) does the source give for CC[C@H](C)[C@H](NC(=O)[C@H](Cc1c[nH]cn1)NC(=O)[C@H](C)NC(=O)[C@H](CCC(N)=O)NC(=O)[C@@H](NC(=O)[C@H](CCCNC(=N)N)NC(=O)[C@H](CC(C)C)NC(=O)[C@H](CC(C)C)NC(=O)[C@H](CO)NC(=O)[C@@H]1CCCN1C(=O)[C@@H](NC(=O)[C@H](CC(N)=O)NC(=O)[C@H](CCCCN)NC(=O)CNC(=O)[C@H](CCC1(C)N=N1)NC(=O)c1ccc2c(c1)C(=O)OC21c2ccc(O)cc2Oc2cc(O)ccc21)[C@@H](C)CC)C(C)C)C(=O)N[C@@H](CCCNC(=N)N)C(=O)N[C@@H](CCCCN)C(=O)N[C@@H](CCCCN)C(=O)N[C@@H](CCSC)C(=O)N[C@H](C(N)=O)C(C)C [F/D-My1] (5FAM-[Abu(3-Me-diazirin-3-yl)]GKNIPSLLRVQAHIRKKMV-NH2) here?
Answer: 3.4 nM

Question: How did the “uptake of polyarginines compared by chain length” value ([5]; Pf3D7 early schizonts) turn out when FAM GRRRRRR -NH2 [F-Arg6] was run?
Answer: significant improvement over F-Arg4

Question: Which “uptake of polyarginines compared by chain length” value ([5]; Pf3D7 early schizonts) does the source give for FAM GRRRRRRR -NH2 [F-Arg7] here?
Answer: significantly greater than F-Arg6
